A short description of data set [1]: Plasma levels of curcumin, metabolites and piperine by HPLC-MS/MS in participants using their own curcumin formulations. Format: in vivo, human. Here is the method:
This study is an observational, open-label study investigating the plasma concentration of curcumin as used in daily life. Each participant was instructed to bring their own curcumin formulation on the day of visit. Participants were asked not to take their curcumin formulation in the morning on the day of visit. Blood was taken just before intake of the curcumin supplement (trough concentration) and 1.5 h after intake (expected peak concentration). Any food or beverage intake between these time points was registered while participants were not allowed to take any additional curcumin in between these two time points.
Blood was collected in heparinized tubes and protected against light by wrapping in aluminum foil directly after sampling. All samples were centrifuged (Rotina 380R from Hettich) for 10 min at 2754 RCF and 20°C and the obtained plasma was immediately stored, protected from light, at –80°C until analysis.
To determine the active plasma concentrations of curcumin, demethoxycurcumin, bisdemethoxycurcumin, and tetrahydrocurcumin it is important to highlight the difference between conjugated and unconjugated forms of these different compounds. A way to show this difference is to pretreat each sample with and without β-glucoronidase. In short, we used β-glucoronidase from Sigma-Aldrich (St. Louis, MO, USA), which contained ≥300,000 U/g β-glucoronidase and ≥10,000 U/g sulfatase, which hydrolyzes the hydrophilic glucuronic and sulfate acid group from conjugated curcumin (Figure 1) ([19]). The optimal pH for β-glucoronidase activity is 5.0 ([20]). Although our final mixture of sample plus β-glucoronidase solution has a slightly higher pH, we confirmed that after 1 h incubation at 37°C and 850 repetition per minute (rpm), a plateau was reached. No further conversion of conjugated curcumin into deconjugated curcumin occurred, indicating a complete reaction. Therefore, adding β-glucoronidase/sulfatase mixture results in an increase of unconjugated curcumin, demethoxycurcumin, bisdemethoxycurcumin, and tetrahydrocurcumin by displaying the sum of ‘previous’ conjugated and unconjugated curcuminoids and tetrahydrocurcumin.
Plasma samples were analyzed by our validated HPLC-MS/MS method ([21]). In short, on the day of analysis, samples were thawed and pretreated with and without β-glucoronidase. The samples treated with β-glucoronidase were incubated with 20 U/μL β-glucuronidase at 37°C and 850 revolutions per minute (RPM) for 1 h. Liquid–liquid extraction with Tert Butyl Methyl Ether (TBME) as organic phase was used to extract the compounds from the plasma. Curcumin, demethoxycurcumin, bisdemethoxycurcumin, tetrahydrocurcumin and piperine were quantified in a single analytical run. The HPLC-MS/MS system consisted of an Ultimate 3000 autosampler and pump, both of Dionex, connected to a degasser from LC Packings. The autosampler, with a 100 μL sample loop, was coupled to a Sciex API4000 mass spectrometer. After injection of 50 μL sample, separation of the analytes was performed with an Agilent column 2.1 × 100 mm packed with material of Zorbax Extend 3.5 μm C-18. The flowrate was […] and the dual gradient mobile phase consisted of A: ultra-purified H2O with 0.1% formic acid and B: MeOH 100%. The applied gradient profile started at 50:50 A:B and increased linear to 95% B in 3.0 min. During 6 min a 5:95 A:B level is continued, after which it returned in 0.2 min to 50:50. Afterwards the system was equilibrated during 6 min at the starting level. Throughout the liquid–liquid extraction and HPLC-MS/MS the potential influence of light was minimized by working in an dark environment with aluminum foil as much as possible. Each analytical run included a set of freshly prepared calibration samples containing all compounds in the validated range of 2 nM to 400 nM.

The next data set deals with CYP3A. Further details: method as in PMID 18480186. The settings on record: cited from earlier work.
Data set [2] deals with mouse model for pancreatic cancer. Details: method as in PMID 19528445. The settings on record: cited from earlier work.
The conditions of data set [3]: cited from earlier work.
Details of data set [4]: method as in PMID 9278892. The settings on record: human blood incubated for 8 h at 37°C; cited from earlier work.
On the set-up of data set [5]: method as in PMID 16545122. The settings on record: oral dosages of up to 12 gram; cited from earlier work.
Details of data set [6]: method as in PMID 9619120. To be noted: addition of 20 mg/kg piperine; rats; cited from earlier work.
Setting [7] is: human, in vivo, Mean concentration.
[8] abbreviates: human, in vivo, Plasma level in individual participants.
The mark [9] stands for this setting: with addition of β-glucuronidase, 0 h (trough), human plasma.
Where [10] appears, read: with addition of β-glucuronidase, 1.5 h (expected peak), human plasma.
The mark [11] stands for this setting: without addition of β-glucuronidase, 0 h (trough), human plasma.

Where “and” joins values, the source holds several entries; their conditions need not be identical. Equal values may be shown once.

With `O=C(/C=C/c1ccc(O)cc1)CC(=O)/C=C/c1ccc(O)cc1` [Bisdemethoxycurcumin, bisdemethoxycurcumin], in data set [1] (human, in vivo), the Plasma concentrations lay in the range of 1.0 to 18.6 ng/mL and the “Plasma level in individual participants” value turned out to be 2.1 ng/mL. Also, in data set [1] (human, in vivo, 0 h), the Concentration range was in the range of 0.7 to 2.7 ng/mL and the Mean concentration is 1.6 ng/mL. In data set [1] (human, in vivo, 1.5 h), the Concentration range fell in the range of 0.7 to 60.4 ng/mL and the Mean concentration is reported as 6.1 ng/mL. In addition, the concentration at 0 h in data set [1] (setting [7]) worked out at 2.1 ng/mL. Further, in data set [1] (setting [8]), the concentration at 1.5 h was under 0.62 ng/mL.

Turning to `COc1cc(/C=C/C(O)=C/C(=O)/C=C/c2ccc(O)cc2)ccc1O` [Demethoxycurcumin, demethoxycurcumin], in data set [1] (human, in vivo), the Plasma concentrations was 1.0 to 18.6 ng/mL and the “Plasma level in individual participants” value is on record as under 0.68 ng/mL. For the same molecule, in data set [1] (human, in vivo, 0 h), the Concentration range lay in the range of 1.4 to 8.6 ng/mL and the Mean concentration turned out to be 3.5 ng/mL. Besides, in data set [1] (human, in vivo, 1.5 h), the Concentration range was 0.9 to 73.1 ng/mL and the Mean concentration was 9.4 ng/mL. For the same molecule, the concentration at 1.5 h in data set [1] (setting [8]) is under 0.68 ng/mL.

As to `O=C(/C=C/C=C/c1ccc2c(c1)OCO2)N1CCCCC1` [Piperine, piperine], the IC50 in the data set with CYP3A is 5.5 ± 0.7 µM. Further, in data set [1] (human, in vivo), the “Fold lower than piperine plasma concentrations in literature that affect curcumin bioavailability” value was 10-60 fold; the “Trough and peak level concentrations” value was in the range of 1.0 to 1096 ng/mL. In data set [1] (in vivo), the Detectability in plasma result was “detectable in all participants”.

As to `COc1cc(CCC(=O)CC(=O)CCc2ccc(O)c(OC)c2)ccc1O` [Tetrahydrocurcumin, tetrahydrocurcumin], in data set [1] (human, in vivo), the Plasma concentrations fell in the range of 1.0 to 18.6 ng/mL. The “Plasma level in individual participants” value is given as under 0.74 ng/mL in data set [1] (human, in vivo) and 20.9 ng/mL in data set [1] (human, in vivo, 1.5 h). For the same molecule, the Concentration range in data set [1] (human, in vivo, 0 h) was 0.8 to 81.2 ng/mL. The Mean concentration in data set [1] (human, in vivo, 0 h) turned out to be 14.6 ng/mL; in data set [1] (human, in vivo, 1.5 h) it was 21.6 ng/mL. The concentration at 1.5 h in data set [1] (setting [7]) came to 18.6 ng/mL; in data set [1] (setting [8]), 16.4 ng/mL.

Consider curcumin, for which, in data set [2], the Tumor growth entry is reported as “reduced the tumor growth”. Also, the Curcumin concentrations entry in data set [3] (oral lipid formulations, β-glucuronidase added prior to analysis) is on record as “up to 1189.1 ± 518.8 ng/mL”. Besides, the “Claimed plasma concentration relative to the concentration of unconjugated curcumin” value in data set [3] (β-glucuronidase added to plasma prior to analysis) is on record as “up to 185 x”. Moreover, the “Decrease of chemical t1/2” value in data set [4] was 50%. Further, in data set [5], the “Levels of curcumin in the systemic circulation” value is “no detectable levels”. Also, the “Fold below a plasma concentration expected to have a beneficial health effect” value in data set [1] (curcumin plasma level after adding β-glucuronidase (25.4 ng/mL)) is listed as 1000 fold. For the same molecule, the Cmax in data set [1] (one of three participants using curcumin lipid formulations, dosage 800 mg) was 355 nM. The “Fold lower than the concentrations assessed in vitro” value in data set [1] (unconjugated free curcumin in plasma) is given as over 1000 fold. The “Detectable levels in # persons” value in data set [1] (setting [9]) is listed as 27; in data set [1] (setting [10]), 42; in data set [1] (setting [11]), 1; in data set [1] (without addition of β-glucuronidase, 1.5 h after intake (expected peak), human plasma), 2. In addition, the Mean concentration in data set [1] (setting [9]) was determined as 14.3 ng/mL; in data set [1] (setting [10]) it was 25.4 ng/mL; in data set [1] (setting [11]), 10.1 ng/mL; in data set [1] (without addition of β-glucuronidase, 1.5 h (expected peak), human plasma), 1.0 ng/mL. Moreover, the “Participants in whom curcumin after hydrolysis could not be detected (below LLOQ)” value in data set [1] (with β-glucuronidase, 1.5 h after dosing) amounted to 5. The “Plasma level in individual participants” value in data set [1] (without β-glucuronidase, expected peak level, 1.5 h after intake) is 0.9 ng/mL and 1.1 ng/mL; in data set [1] (without β-glucuronidase, trough level), 10.1 ng/mL. Besides, the “Increase of bioavailability of curcumin” value in data set [6] is 154%.
